Test results reported in PubChem BioAssay AID463199 (Broad Institute, 2010).
Activity calls are given as the source filed them.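 The calls were made as follows: active = AC50, the dose giving half-maximal effect, exceeds a fixed cutoff for a compound that rescues yeast growth under heat; inactive = the rest, inconclusive results apart.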

Tested on: S. cerevisiae Burl-1 ts mutant growth, BacTiter-Glo, 38.5C 24 h
Assay: growth induction of Burl-1 ts yeast mutant, dose response, counter-screen for SUMOylation pathway inhibitor project, whole organism, S. cerevisiae, luminescence (AID 463199)

Row | Compound | AC50
1 | CCS(=O)c1ccccc1C(=O)O (stereo not given) | > 42 µM (inactive)
2 | Cc1nc2ccccc2n(CC(=O)Nc2cc(Cl)cc(Cl)c2)c1=O | > 42 µM (inactive)
3 | CN(C(=O)CSc1nc(-c2ccccc2)c(-c2ccccc2)o1)C1CCS(=O)(=O)C1 (stereo not given) | > 42 µM (inactive)
4 | CCN(CC)CCNc1ncnc2c1[nH]c1ccc(OC)cc12 | > 42 µM (inactive)
5 | CC1=C/C(=N\OS(=O)(=O)c2ccccc2)C(C(C)C)=CC1=O | > 42 µM (inactive)
6 | CCn1nnc(-c2ccccc2NC(=O)c2cnccn2)n1 | > 42 µM (inactive)
7 | O=C(COc1ccc([N+](=O)[O-])cc1)Nc1ccc(C(=O)NCc2cccnc2)cc1 | > 42 µM (inactive)
8 | CN(CC(=O)Nc1cccc(F)c1)CC(=O)Nc1cccc(S(N)(=O)=O)c1 | > 42 µM (inactive)
9 | CN(c1ccccc1)S(=O)(=O)c1ccc(C(=O)NCC2CCCO2)cc1 (stereo not given) | > 21 µM (inactive)
10 | CCOC(=O)c1cnc2c(OC)cccc2c1N1CCN(c2ccccc2OC)CC1 | > 42 µM (inactive)
11 | CCC(c1nc2ccccc2c(=O)n1-c1nc2ccccc2s1)N1C(=O)c2ccccc2C1=O (stereo not given) | > 42 µM (inactive)
12 | C=CCNC(=O)c1cc(-c2cccnc2)nc2ccccc12 | > 42 µM (inactive)
13 | CCn1nc(C(=O)OCc2cccc(S(=O)(=O)N(C)C)c2)c2ccccc2c1=O | > 42 µM (inactive)
14 | O=C(CN1C(=O)NC2(CCCC2)C1=O)Nc1nc2ccccc2[nH]1 | > 42 µM (inactive)
15 | CC(C)C(CC(=O)NCc1ccco1)c1ccco1 (stereo not given) | > 42 µM (inactive)
16 | N=c1sccn1CC(=O)Nc1cccc(S(N)(=O)=O)c1 | > 42 µM (inactive)
17 | Cc1ccccc1Nc1cc(=O)oc2ccccc12 | > 42 µM (inactive)
18 | CSc1ccc(CN2CCN(S(=O)(=O)Cc3ccccc3)CC2)cc1 | > 42 µM (inactive)
19 | CSc1ccccc1-n1nnnc1SCC(=O)Nc1ccccc1C | > 42 µM (inactive)
20 | CC1CC(C)(C)NC(=S)N1CC(=O)NCc1ccc(F)cc1 (stereo not given) | > 42 µM (inactive)
21 | Cc1c(NC(=O)c2ccc(N(C)S(C)(=O)=O)cc2)c(=O)n(-c2ccccc2)n1C | > 42 µM (inactive)
22 | CC1(C)NC(=O)N(CCCOc2ccccc2Br)C1=O | > 42 µM (inactive)
23 | CCCCOc1ccc(CSC(=N)N)cc1Cl | > 42 µM (inactive)
24 | CCCCCC(=O)NNC1=NCC(Cc2cccc(Cl)c2)S1 (stereo not given) | > 42 µM (inactive)
25 | O=c1[nH]cnc2ccc([N+](=O)[O-])cc12 | > 42 µM (inactive)

Row | Compound | AC50
26 | Cc1cc(/C=C2\C(=O)NC(=O)N(c3ccccc3F)C2=O)c(C)n1-c1cc(C(=O)O)cc(C(=O)O)c1 | > 42 µM (inactive)
27 | CCc1ccc(-n2c(Cc3ccccc3)n[nH]c2=S)cc1 | > 42 µM (inactive)
28 | CCOC(=O)N1CCN(S(=O)(=O)c2ccc(C)c(C)c2)CC1 | > 42 µM (inactive)
29 | COc1cccc2[nH]c(=O)c(-c3ccccc3)cc12 | > 42 µM (inactive)
30 | c1ccc(-c2csc(NC3CCCCC3)n2)cc1 | > 42 µM (inactive)
31 | C=CCNC(=O)NC(=O)COC(=O)/C(C#N)=C/c1cc(C)n(CC(C)C)c1C | > 42 µM (inactive)
32 | c1ccc(OCCCc2nc(-c3cccnc3)no2)cc1 | > 42 µM (inactive)
33 | CCCCn1c(N)c(N(CCOC)C(=O)c2cnccn2)c(=O)[nH]c1=O | > 42 µM (inactive)
34 | O=C(O)CCc1ccc(-c2ccccc2)n1NC(=O)c1cccs1 | > 42 µM (inactive)
35 | O=C(c1cc(N2C(=O)C3C4CCC(C4)C3C2=O)ccc1Cl)N1CCCCCC1 (stereo not given) | > 42 µM (inactive)
36 | C=CCOc1ccccc1CN1CCCC(CCC(=O)N(C)CCc2ccccn2)C1 (stereo not given) | > 21 µM (inactive)
37 | O=S(=O)(NCC1CCCO1)c1cc(Cl)ccc1Br (stereo not given) | > 42 µM (inactive)
38 | O=C1CCCC2=C1C(c1ccncc1)c1c(nc(SCc3ccccc3Cl)[nH]c1=O)N2 (stereo not given) | > 42 µM (inactive)
39 | CCCS(=O)(=O)N1CCC(C(=O)N2CCc3ccccc3C2)CC1 | > 42 µM (inactive)
40 | CC(C)C(O)(C(=O)NNc1ccccc1)C(C)C | > 42 µM (inactive)
41 | COc1ccc(NC2=C(C)C(=O)CC2)cc1 | > 42 µM (inactive)
42 | Cc1ccc(-c2ccc(/C=N/n3cnnc3)o2)cc1 | > 42 µM (inactive)
43 | Cc1cc(Cl)c2oc(C(=O)NC3CCC(O)CC3)c(C)c2c1 (stereo not given) | > 42 µM (inactive)
44 | COc1ccc(-c2cc(C(=O)Nc3cc(C)ccc3O)no2)cc1 | > 42 µM (inactive)
45 | Cc1ccc(NS(=O)(=O)c2csc(C(N)=O)c2)cc1C | > 42 µM (inactive)
46 | COc1ccc2cc(C#N)c(Nc3cccc(F)c3)nc2c1 | > 42 µM (inactive)
47 | CCOC(=O)C1CCCN(C(=O)/C=C/c2ccc(Cl)cc2)C1 (stereo not given) | > 42 µM (inactive)
48 | Cc1nc(N/N=C\c2ccc3c(c2)OCO3)sc1C | > 42 µM (inactive)
49 | COc1ccc(NC2CCCN(C(=O)CCc3scnc3C)C2)cc1 (stereo not given) | > 42 µM (inactive)
50 | O=S(=O)(Nc1ccc(-c2nc3cccnc3s2)cc1)c1cc(F)ccc1F | > 42 µM (inactive)
